# According to PubChem BioAssay AID330 (DTP/NCI, 2004):
# Several values for one entry are separate records, joined by “and”; a condition that tells them apart may be missing. Equal values may be shown once. Toxic doses and inconclusive results are not listed. Peptide text beside a SMILES is read from it. * marks the point of attachment. Cbz = O=C(OCc1ccccc1)*
# Test system: P388 leukemia ip, CD2F1 mice, survival T/C
# Experiment: NCI In Vivo Anticancer Drug Screen. Data for tumor model P388 Leukemia (intraperitoneal) in CD2F1 (CDF1) mice
# Conditions: endpoint: median survival time, higher = longer survival
# Procedure, shortened: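 Mice carrying the transplanted tumor received test compound or vehicle. Survival was recorded in each group, and the value is the treated-group measurement divided by that of the vehicle-treated control group.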
# [1] = dose: 50.0 mg/kg/injection, schedule: Q01DX009 (ip), vehicle: Klucel (hydroxypropylcellulose) (HPC)
# [2] = dose: 100.0 mg/kg/injection, schedule: Q01DX009 (ip), vehicle: Klucel (hydroxypropylcellulose) (HPC)
# [3] = dose: 50.0 mg/kg/injection, schedule: Q01DX005 (ip), vehicle: Klucel (hydroxypropylcellulose) (HPC)
# [4] = dose: 100.0 mg/kg/injection, schedule: Q01DX005 (ip), vehicle: Klucel (hydroxypropylcellulose) (HPC)
# [5] = dose: 25.0 mg/kg/injection, schedule: Q01DX009 (ip), vehicle: saline with Tween-80
# [6] = dose: 50.0 mg/kg/injection, schedule: Q01DX009 (ip), vehicle: saline with Tween-80
# [7] = dose: 100.0 mg/kg/injection, schedule: Q01DX009 (ip), vehicle: saline with Tween-80
# [8] = dose: 100.0 mg/kg/injection, schedule: Q04DX002 (ip), vehicle: Klucel (hydroxypropylcellulose) (HPC)
# [9] = dose: 200.0 mg/kg/injection, schedule: Q04DX002 (ip), vehicle: Klucel (hydroxypropylcellulose) (HPC)
# [10] = dose: 400.0 mg/kg/injection, schedule: Q04DX002 (ip), vehicle: Klucel (hydroxypropylcellulose) (HPC)
# [11] = dose: 200.0 mg/kg/injection, schedule: Q01DX005 (ip), vehicle: Klucel (hydroxypropylcellulose) (HPC)
smiles,measurement,setting,value
Oc1ccc2ccccc2c1CN(Cc1c(O)ccc2ccccc12)C1CCCCC1,T/C,"dose: 50.0 mg/kg/injection, schedule: Q01DX005 (ip), vehicle: saline with Tween-80",97 % of control
same,T/C,"dose: 100.0 mg/kg/injection, schedule: Q01DX005 (ip), vehicle: saline with Tween-80",96 % of control
same,T/C,"dose: 200.0 mg/kg/injection, schedule: Q01DX005 (ip), vehicle: saline with Tween-80",104 % of control
CC(C)CC(NC(=O)C(N)Cc1ccc(N(CCCl)CCCl)cc1)C(=O)O (configuration not stated),T/C,"dose: 3.7 mg/kg/injection, schedule: Q04DX003 (ip), vehicle: saline with Tween-80",155 % of control and 172 % of control
same,T/C,"dose: 8.4 mg/kg/injection, schedule: Q04DX003 (ip), vehicle: saline with Tween-80",187 % of control and 203 % of control
same,T/C,"dose: 12.6 mg/kg/injection, schedule: Q04DX003 (ip), vehicle: saline with Tween-80",204 % of control and 272 % of control
same,T/C,"dose: 18.9 mg/kg/injection, schedule: Q04DX003 (ip), vehicle: saline with Tween-80",108 % of control and 118 % of control
same,T/C,"dose: 32.0 mg/kg/injection, schedule: Q04DX003 (ip), vehicle: saline with Tween-80",158 % of control
same,T/C,"dose: 42.6 mg/kg/injection, schedule: Q04DX003 (ip), vehicle: saline with Tween-80",179 % of control
same,T/C,"dose: 64.0 mg/kg/injection, schedule: Q04DX003 (ip), vehicle: saline with Tween-80",190 % of control and 198 % of control
same,T/C,"dose: 96.0 mg/kg/injection, schedule: Q04DX003 (ip), vehicle: saline with Tween-80",243 % of control
same,T/C,"dose: 128.0 mg/kg/injection, schedule: Q04DX003 (ip), vehicle: saline with Tween-80",88 % of control
CC(=O)C(Cl)c1ccccc1Cl (configuration not stated),T/C,"dose: 25.0 mg/kg/injection, schedule: Q01DX009 (ip), vehicle: Klucel (hydroxypropylcellulose) (HPC)",111 % of control
same,T/C,[1],107 % of control and 113 % of control
same,T/C,[2],109 % of control
CN=C1c2ccccc2C(=O)c2c1c(O)n(-c1ccccc1)c2O,T/C,[3],96 % of control
same,T/C,[4],100 % of control
CCC/C=C1/OC(=O)C2=C[C@H]3CC[C@]21[C@]1(OC(=O)C2=C1CCC=C2)[C@H]3CCC,T/C,"dose: 7.0 mg/kg/injection, schedule: Q01DX005 (ip), vehicle: Klucel (hydroxypropylcellulose) (HPC)",104 % of control
same,T/C,"dose: 14.0 mg/kg/injection, schedule: Q01DX005 (ip), vehicle: Klucel (hydroxypropylcellulose) (HPC)",100 % of control
same,T/C,"dose: 28.0 mg/kg/injection, schedule: Q01DX005 (ip), vehicle: Klucel (hydroxypropylcellulose) (HPC)",106 % of control
same,T/C,"dose: 56.0 mg/kg/injection, schedule: Q01DX005 (ip), vehicle: Klucel (hydroxypropylcellulose) (HPC)",97 % of control
CN(C)C1C[C@@H](O[Si](C)(C)C(C)(C)C)C=C1S(=O)(=O)c1ccccc1 (some centres not stated),T/C,"dose: 60.0 mg/kg/injection, schedule: Q01DX005 (ip), vehicle: Klucel (hydroxypropylcellulose) (HPC)",87 % of control
Cc1cncn2c(C)nnc12,T/C,"dose: 100.0 mg/kg/injection, schedule: Q04DX003 (ip), vehicle: saline",100 % of control
same,T/C,"dose: 200.0 mg/kg/injection, schedule: Q04DX003 (ip), vehicle: saline",104 % of control
Sc1ccccc1.[Ag],T/C,[5],97 % of control
same,T/C,[6],105 % of control
same,T/C,[7],96 % of control
O=C1c2ccccc2CC12OC2c1ccncc1 (configuration not stated),T/C,[8],104 % of control
same,T/C,[9],100 % of control
same,T/C,[10],106 % of control
C#CC(C)(O)C(O)c1ccccc1 (configuration not stated),T/C,[6],98 % of control
same,T/C,[7],109 % of control
same,T/C,"dose: 200.0 mg/kg/injection, schedule: Q01DX009 (ip), vehicle: saline with Tween-80",96 % of control
N=C(N)n1cc(/C=N/N=C(N)N)cn1,T/C,"dose: 60.0 mg/kg/injection, schedule: Q01DX005 (ip), vehicle: saline with Tween-80",102 % of control
same,T/C,"dose: 120.0 mg/kg/injection, schedule: Q01DX005 (ip), vehicle: saline with Tween-80",103 % of control
COC1OCCCO1,T/C,"dose: 60.0 mg/kg/injection, schedule: Q01DX005 (ip), vehicle: saline",103 % of control
same,T/C,"dose: 120.0 mg/kg/injection, schedule: Q01DX005 (ip), vehicle: saline",104 % of control
same,T/C,"dose: 240.0 mg/kg/injection, schedule: Q01DX005 (ip), vehicle: saline",107 % of control
O=C(O)/C(=N/NC(=O)c1ccccc1)c1ccccc1,T/C,[8],98 % of control
same,T/C,[9],98 % of control
same,T/C,[10],92 % of control
C=C(CO)C(=O)OC1CC(=C)C2CC(O)C(=C)C2[C@H]2OC(=O)C(=C)C12 (some centres not stated),T/C,"dose: 3.75 mg/kg/injection, schedule: Q01DX009 (ip), vehicle: saline",92 % of control
same,T/C,"dose: 7.5 mg/kg/injection, schedule: Q01DX009 (ip), vehicle: saline",99 % of control
same,T/C,"dose: 15.0 mg/kg/injection, schedule: Q01DX009 (ip), vehicle: saline",108 % of control
COc1ccc2c(c1)CSCC2=O,T/C,[1],98 % of control
same,T/C,[2],98 % of control
same,T/C,"dose: 200.0 mg/kg/injection, schedule: Q01DX009 (ip), vehicle: Klucel (hydroxypropylcellulose) (HPC)",100 % of control
CC1=C2CC(C)(C)/C=C\C(=O)/C(C)=C\C3=CCCC3(O2)C1=O (configuration not stated),T/C,"dose: 5.0 mg/kg/injection, schedule: Q01DX005 (ip), vehicle: Klucel (hydroxypropylcellulose) (HPC)",110 % of control
same,T/C,"dose: 10.0 mg/kg/injection, schedule: Q01DX005 (ip), vehicle: Klucel (hydroxypropylcellulose) (HPC)",120 % of control
same,T/C,"dose: 20.0 mg/kg/injection, schedule: Q01DX005 (ip), vehicle: Klucel (hydroxypropylcellulose) (HPC)",107 % of control
O=C1CCC(=O)c2c1c(O)c1c(O)ccc(O)c1c2O,T/C,"dose: 6.25 mg/kg/injection, schedule: Q01DX005 (ip), vehicle: saline with Tween-80",96 % of control
same,T/C,"dose: 12.5 mg/kg/injection, schedule: Q01DX005 (ip), vehicle: saline with Tween-80",87 % of control
same,T/C,"dose: 25.0 mg/kg/injection, schedule: Q01DX005 (ip), vehicle: saline with Tween-80",94 % of control
OCc1c(-c2ccc(Cl)cc2)c(-c2ccc(F)cc2)c2n1CCC2,T/C,[3],98 % of control
same,T/C,[4],100 % of control
same,T/C,[11],103 % of control
C[CH2][Pb]([CH2]C)([CH2]C)[O]C(=O)c1ccc2ccccc2n1,T/C,"dose: 0.25 mg/kg/injection, schedule: Q01DX009 (ip), vehicle: saline with Tween-80",100 % of control
same,T/C,"dose: 0.5 mg/kg/injection, schedule: Q01DX009 (ip), vehicle: saline with Tween-80",103 % of control
same,T/C,"dose: 1.0 mg/kg/injection, schedule: Q01DX009 (ip), vehicle: saline with Tween-80",99 % of control
same,T/C,"dose: 2.0 mg/kg/injection, schedule: Q01DX009 (ip), vehicle: saline with Tween-80",94 % of control
same,T/C,"dose: 4.0 mg/kg/injection, schedule: Q01DX009 (ip), vehicle: saline with Tween-80",112 % of control
same,T/C,"dose: 8.0 mg/kg/injection, schedule: Q01DX009 (ip), vehicle: saline with Tween-80",90 % of control
c1ccc([P+]23OCCN2CCO3)cc1,T/C,"dose: 100.0 mg/kg/injection, schedule: Q04DX003 (ip), vehicle: saline with Tween-80",104 % of control
same,T/C,"dose: 200.0 mg/kg/injection, schedule: Q04DX003 (ip), vehicle: saline with Tween-80",98 % of control
same,T/C,"dose: 400.0 mg/kg/injection, schedule: Q04DX003 (ip), vehicle: saline with Tween-80",102 % of control
CC(=O)c1ccc2ccccc2c1OC(=O)c1cccnc1,T/C,"dose: 6.25 mg/kg/injection, schedule: Q01DX009 (ip), vehicle: distilled water + Tween-80",100 % of control
same,T/C,"dose: 12.5 mg/kg/injection, schedule: Q01DX009 (ip), vehicle: distilled water + Tween-80",104 % of control
same,T/C,"dose: 25.0 mg/kg/injection, schedule: Q01DX009 (ip), vehicle: distilled water + Tween-80",111 % of control and 94 % of control
same,T/C,"dose: 50.0 mg/kg/injection, schedule: Q01DX009 (ip), vehicle: distilled water + Tween-80",107 % of control and 111 % of control
same,T/C,"dose: 100.0 mg/kg/injection, schedule: Q01DX009 (ip), vehicle: distilled water + Tween-80",117 % of control and 119 % of control
same,T/C,"dose: 200.0 mg/kg/injection, schedule: Q01DX009 (ip), vehicle: distilled water + Tween-80",121 % of control
CC1C(=O)CCC2(C)C1CCC1C3CCC(O)C3(C)CCC12 (configuration not stated),T/C,"dose: 12.5 mg/kg/injection, schedule: Q01DX009 (ip), vehicle: saline with Tween-80",95 % of control
same,T/C,[5],109 % of control
same,T/C,[6],95 % of control
CC(C)C(NC(=O)C(Cc1cnc[nH]1)NC(=O)OCc1ccccc1)C(=O)O (stereo not drawn) (Cbz-His-Val-OH; configuration not given here),T/C,[3],101 % of control
same,T/C,[4],96 % of control
same,T/C,[11],100 % of control
